In patent US20090047701A1, “METHOD FOR SCREENING ANTIFUNGAL AGENTS” (STICHTING VOOR DE TECHNISCHE, priority 2004, published 2009):

Assays:
Assay type in all cases: cell-based, Aspergillus niger
ΔrlmA strain = assay: microtiter plate based growth assay: sensitivity of the ΔrlmA strain versus wild-type (N402); details: spores in Complete medium, 37° C., 96-well plates, various concentrations, ΔrlmA vs N402 (FIG. 4)
Method: Sensitivity of the ΔrlmA strain towards different compounds. Growth curves of wild-type (N402) and ΔrlmA strains. Spores were grown in Complete medium for 24 hrs at 37° C. in the presence of various concentrations of antifungals. Data are represented as the mean and standard error of the mean obtained from four replicates. The dotted line with open squares represents the growth curve of the rlmA deletion strain and the solid line with closed circles represent the parental (N402) strain.
Sensitivity towards various compounds was assayed in 96-well microtiter plates (Nunc, art. 164588) using a Perkin Elmer HTS-7000 Bioassay reader. A series of concentrations of stress-inducing compounds (CFW, Caspofungin, Hydrogen-peroxide, SDS) were prepared in 100 μl milliq in a 96-well plate, and 100 μl spore solution (˜2×10^4 spores) in 2× complete medium was added to 100 μl stress-inducing solution. The microtiter plates were incubated at 37° C. and the OD590 was measured every 2 hours.
The sensitivity of the wild-type and the ΔrlmA strain towards various compounds was also measured by determining fungal growth in a microtiter plate based growth assay.

agsA [1] = assay: Northern analysis of agsA expression after CFW-induced cell wall stress, wild-type strain (N402); details: wild-type N402 germlings, 200 μg/ml CFW, RNA at 0, 15, 30, 45 and 60 minutes (FIG. 3)
Method: (§1) Cell wall integrity response in the wild-type (N402) and the ΔrlmA strain. Northern analysis of the agsA, and 18S messenger levels. Strains were grown in shake flask until small germ tubes were formed. Subsequently CFW (+) or an equal volume of water (−) was added to the cultures. RNA was extracted at the timepoints indicated above the Northerns, t=time in minutes. The probes used; for agsA a ˜0.6 kb EcoRI agsA fragment was isolated from pGEMT-agsA (Damveld et al, unpublished vector); the 18S ribosomal probe was isolated as a 2 kb BglI fragment from pMN1 (Borsuk et al., 1982 Gene 17, 147-152.)
(§2) Chromosomal DNA of A. niger was isolated as described by Kolar (Kolar et al., 1988, Gene 62, 127-134). Alternatively, chromosomal DNA was isolated using the FastPrep FP120 (Bio101). First, A. niger spores were grown in Fast-prep tubes containing 1 ml CM and 0.3 gram acid washed glass beads. […] Sequencing was carried out with a Perkin Elmer ABI PRISM 310 sequencer using the ABI prism Big Dye Terminator Cycle Sequencing Ready Reaction Kit (Applied Biosystems). […]
(§3) To determine the role of A. niger RlmA in the activation of agsA in response to cell wall stress, the expression of agsA was analysed in both the wild-type strain (N402) and the rlmA deletion strain (ΔrlmA) after CFW treatment. […]

agsA [2] = assay: Northern analysis of agsA expression after CFW-induced cell wall stress, rlmA deletion strain (ΔrlmA); details: ΔrlmA germlings, 200 μg/ml CFW, RNA at 0, 15, 30, 45 and 60 minutes (FIG. 3)
Method: as §1, §2, §3

Compound | Sensitivity of the ΔrlmA strain towards the compound in comparison to the wild-type strain (fungal growth, OD590) (ΔrlmA strain) | expression level of the agsA gene after CFW addition (agsA [1]) | agsA mRNA in the ΔrlmA strain after treatment with CFW (agsA [2])
O=S(=O)(O)c1cc(Nc2nc(Nc3ccccc3)nc(N(CCO)CCO)n2)ccc1/C=C/c1ccc(Nc2nc(Nc3ccccc3)nc(N(CCO)CCO)n2)cc1S(=O)(=O)O [CFW, Calcofluor White] | hypersensitive phenotype | already induced 15 minutes after CFW addition | no agsA mRNA could be detected
CC[C@H](C)C[C@H](C)CCCCCCCCC(=O)N[C@H]1C[C@@H](O)[C@@H](NCCN)NC(=O)[C@@H]2[C@@H](O)CCN2C(=O)[C@H]([C@H](O)CCN)NC(=O)[C@H]([C@H](O)[C@@H](O)c2ccc(O)cc2)NC(=O)[C@@H]2C[C@@H](O)CN2C(=O)[C@H]([C@@H](C)O)NC1=O [Caspofungin] | slightly, but reproducible enhanced |  | 
OO [H2O2, Hydrogen-peroxide] | no hypersensitive phenotype |  | 
CCCCCCCCCCCCOS(=O)(=O)[O-].[Na+] [SDS] | hypersensitive phenotype |  | 
CCCCNC(=O)n1c(NC(=O)OC)nc2ccccc21 [benomyl] | slightly, but reproducible enhanced |  | 
tunicamycin | slightly, but reproducible enhanced |  | 
